4 compounds from US7205298B2, “Substituted triazine kinase inhibitors” (Janssen Pharmaceutica N.V., priority 2002, dated 2007) can be followed below.

The target in assay [1] is T1, VEGF-R (rat VEGF-R2 kinase domain) (Rattus norvegicus, UniProt O08775).
T1 construct: 6xHis (polyhistidine) (N)
As to the kind of experiment: VEGF-R Screening Assay. Format: biochemical. On the procedure: A kinase reaction mixture was prepared containing 50 mM Tris-HCl pH=8, 10 mM MgCl2, 0.1 mM Na3PO4, 1 mM DTT, 10 μM ATP, 0.025 μM biotinylated peptide substrate (also referred to herein as PLC-1 biotinylated peptide substrate and PDGF receptor substrate, sequence provided in the peptide substrate table) and 0.8 μCuries per well ^33P-γ-ATP (2000–3000 Ci/mmol). 70 μL of the kinase reaction mixture was dispensed into the well of a streptavidin coated FlashPlate™ (Cat. # SMP103, NEN, Boston, Mass.). Then 1 μL of test compound stock in 100% DMSO was added to the wells resulting in a final concentration of 1% DMSO in the reaction with a 100 μL final reaction volume. Next, soluble rat VEGF tyrosine kinase containing an N-terminal 6XHIS tag was diluted in 50 mM Tris-HCl pH=8.0, 0.1% BSA at a concentration of 5 ng per μL and 30 μL (150 ng enzyme per test well) was added to each well to initiate the reaction. The reaction was incubated for one hour at 30° C. At the end of the 1-hour incubation, the reaction was terminated by aspirating the reaction mixture from the plate and washing the wells twice with PBS containing 100 mM EDTA. The PLC1 biotinylated peptide substrate became immobilized on the Flashplate™ and the incorporation of ^33P-γ-ATP was measured by reading the plate on a scintillation counter. Inhibition of the enzymatic activity of the VEGF-R was measured by observing a reduced amount of ^33P-γ-ATP incorporated into the immobilized peptide.
(§1) Assays to test compound inhibition of other kinases were preformed using methods that measure the amount of phosphorylation of a biotinylated peptide substrate. Biotinylated peptide substrates were selected from the literature as appropriate for the enzyme being evaluated. The general procedure used to assay for kinase activity is as follows: a kinase reaction mix was prepared in 50 mM Tris-HCl pH=8, 10 mM MgCl2, 0.1 mM Na3VO4, 1 mM DTT, 10 μM ATP, 0.25–1 μM biotinylated peptide substrate, 0.2–0.8 μCuries per well ^33P-γ-ATP (2000–3000 Ci/mmol). Assay conditions vary slightly for each protein kinase, for example, insulin receptor kinase requires 10 mM MnCl2 for activity and Calmodulin-dependent protein kinase requires calmodulin and 2 mM CaCl2. The reaction mixture was dispensed into the wells of a streptavidin coated Flashplate and 1 μL test compound in 100% DMSO was added to a 100 μL reaction volume resulting in a final concentration of 1% DMSO in the reaction. Enzyme was diluted in 50 mM Tris-HCl pH=8.0, 0.1% BSA and added to each well. The reaction was incubated for one hour at 30° C. in the presence of a test compound. After one hour the reaction mix was aspirated from the plate and the plate was washed with PBS containing 100 mM EDTA. The plate was read on a scintillation counter to determine ^33P-γ-ATP incorporated into the immobilized peptide substrate. Test compounds were assayed in duplicate at 8 concentrations (100 μM, 10 μM, 1 μM, 100 nM, 10 nM, 1 nM, 100 pM, 10 pM). A maximum and minimum signal for the assay was determined on each plate. […] Known inhibitor compounds appropriate for the kinase being assayed were also included on each plate.
(§2) The form of VEGF-R (vascular endothelial growth factor receptor-2) used was a fusion protein containing a polyhistidine tag at the N-terminus followed by amino acids 786–1343 of the rat VEGF-R2 kinase domain (GenBank Accession #U93306). The form of CDK1 (cyclin dependent kinase 1) used was isolated from insect cells expressing both the human CDK1 catalytic subunit and its positive regulatory subunit cyclin B (CDK1:cyclin B protein, New England Biolabs, Beverly, Mass., Cat. #6020). The form of CDK4 (cyclin dependent kinase 4) used contains amino acids 769 to 921 of the mouse […] protein found in the GST-retinoblastoma protein construct (Santa Cruz Biotechnology, Santa Cruz, Calif.; Cat. #SC-4112). The form of EGF-R1 (epidermal growth factor receptor 1) used was purified from human A431 cell membranes (Sigma, St. Louis, Mo., Cat.# E3641). […]

For a further assay, the target named is T2, CDK1:Cyclin-B (Homo sapiens, UniProt P06493).
T2 construct: purchased New England Biolabs 6020; host or cells: insect cells
T2 sequence (P06493 whole entry): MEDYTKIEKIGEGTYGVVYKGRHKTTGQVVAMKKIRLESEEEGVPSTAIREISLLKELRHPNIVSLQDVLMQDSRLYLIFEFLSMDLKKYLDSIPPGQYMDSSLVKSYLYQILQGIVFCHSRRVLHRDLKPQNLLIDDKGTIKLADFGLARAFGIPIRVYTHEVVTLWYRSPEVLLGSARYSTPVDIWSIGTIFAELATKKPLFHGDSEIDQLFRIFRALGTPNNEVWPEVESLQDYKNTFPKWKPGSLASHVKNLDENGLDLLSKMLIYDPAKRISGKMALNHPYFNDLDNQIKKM
T2 sequence (P14635 whole entry partner): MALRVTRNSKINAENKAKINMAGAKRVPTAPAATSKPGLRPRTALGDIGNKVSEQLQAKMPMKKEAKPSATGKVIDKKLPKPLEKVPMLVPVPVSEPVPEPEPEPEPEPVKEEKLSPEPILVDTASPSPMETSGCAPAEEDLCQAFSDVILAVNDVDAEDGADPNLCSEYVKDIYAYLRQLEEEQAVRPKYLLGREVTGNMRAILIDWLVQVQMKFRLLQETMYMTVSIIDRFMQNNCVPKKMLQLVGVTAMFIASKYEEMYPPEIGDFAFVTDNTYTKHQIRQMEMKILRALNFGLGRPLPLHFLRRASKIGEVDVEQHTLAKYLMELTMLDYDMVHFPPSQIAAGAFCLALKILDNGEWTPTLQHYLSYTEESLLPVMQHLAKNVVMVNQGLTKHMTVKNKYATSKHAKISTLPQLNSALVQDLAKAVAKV
As to the kind of experiment: CDK1 Screening Assay. Format: biochemical. How it is done: A kinase reaction mixture was prepared containing 50 mM Tris-HCl pH=8, 10 mM MgCl2, 0.1 mM Na3PO4, 1 mM DTT, 10 μM ATP, 0.025 μM biotinylated histone-H1 peptide substrate (also referred to herein as a CDK-1 peptide substrate, see substrate table) and 0.2 μCuries per well ^33P-γ-ATP (2000–3000 Ci/mmol). 70 μL of the kinase reaction mixture was dispensed into the well of a streptavidin coated FlashPlate™ (Cat. # SMP 103, NEN, Boston, Mass.). Then 1 μL of test compound stock in 100% DMSO was added to the wells resulting in a final concentration of 1% DMSO in the reaction with a 100 μl final reaction volume. Next, CDK1:Cyclin-B protein (New England Biolads, infra) was diluted in 50 mM Tris-HCl pH=8.0, 0.1% BSA at a concentration of 1 ng per μL and 30 μl (30 ng enzyme per test well) was added to each well to initiate the reaction. The reaction was incubated for one hour at 30° C. At the end of the 1-hour incubation, the reaction was terminated by aspirating the reaction mixture from the plate and washing the wells twice with PBS containing 100 mM EDTA. The histone-H1 biotinylated peptide substrate became immobilized on the Flashplate™ (Perkin Elmer, NEN Boston, Mass.) and the incorporation of ^33P-γ-ATP was measured by reading the plate on a scintillation counter. Inhibition of the enzymatic activity of CDK1 was measured by observing a reduced amount of ^33P-γ-ATP incorporated into the immobilized peptide.
as §1, §2

T1 sequence (O08775 786-1343): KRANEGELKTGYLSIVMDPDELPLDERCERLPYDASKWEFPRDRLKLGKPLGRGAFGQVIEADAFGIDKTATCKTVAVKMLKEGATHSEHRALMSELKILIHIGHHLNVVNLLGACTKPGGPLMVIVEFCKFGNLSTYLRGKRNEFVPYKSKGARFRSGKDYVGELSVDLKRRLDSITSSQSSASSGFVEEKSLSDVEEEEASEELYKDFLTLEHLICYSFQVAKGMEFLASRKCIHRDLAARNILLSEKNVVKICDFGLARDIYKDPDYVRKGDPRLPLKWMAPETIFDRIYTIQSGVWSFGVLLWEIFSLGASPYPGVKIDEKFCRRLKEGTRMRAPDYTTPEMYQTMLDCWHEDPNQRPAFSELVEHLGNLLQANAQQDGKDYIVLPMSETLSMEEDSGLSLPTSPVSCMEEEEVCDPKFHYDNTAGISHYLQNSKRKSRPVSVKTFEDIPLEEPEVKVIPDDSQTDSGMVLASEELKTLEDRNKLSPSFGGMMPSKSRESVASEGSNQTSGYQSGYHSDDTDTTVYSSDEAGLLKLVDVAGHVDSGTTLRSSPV

For the compound `OCCCNc1cncc(-c2ncnc(Nc3cccc(Cl)c3)n2)n1` [Compound 3, 3-((6-(4-((3-chlorophenyl)amino)-1,3,5-triazin-2-yl)pyrazin-2-yl)amino)-1-propanol], the IC50 (as a rule, the midpoint of a concentration-inhibition curve) in assay [1] came to 12900 nM; against CDK1:Cyclin-B, 971 nM.

`Nc1nc(Nc2cccc(Cl)c2)nc(-c2ccnc(NCCCO)c2)n1` [Compound 4, 3-((4-(4-amino-6-((3-chlorophenyl)amino)-1,3,5-triazin-2-yl)-2-pyridinyl)amino)-1-propanol]: the IC50 in assay [1] stood at 865 nM; against CDK1:Cyclin-B, 766 nM.

With `OCCCNc1cncc(-c2ncnc(Nc3ccc4c(c3)OCCO4)n2)c1` [Compound 5, 3-((5-(4-((2,3-dihydro-1,4-benzodioxin-6-yl)amino)-1,3,5-triazin-2-yl)-3-pyridinyl)amino)-1-propanol], the IC50 was ≥ 10000 nM in assay [1] and 382 nM against CDK1:Cyclin-B.

As for `OCCCNc1cncc(-c2ncnc(Nc3ccc(N4CCOCC4)cc3)n2)c1` [Compound 6, 3-((5-(4-((4-(4-morpholinyl)phenyl)amino)-1,3,5-triazin-2-yl)-3-pyridinyl)amino)-1-propanol], the IC50 in assay [1] was 5030 nM; at CDK1:Cyclin-B, 1240 nM.
